Results as given in PubChem BioAssay (NCI).
Several values for one entry are separate records, joined by “and”; a condition that tells them apart may be missing. Identical values can stand only once.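 96-well plates; 48 h exposure; 5 concentrations. Endpoints by linear interpolation between flanking doses. Not reached: highest tested concentration assigned. Abbreviation: GI50, concentration required for 50% inhibition of growth. TGI: total growth inhibition.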

Experiments:
Assay in all cases: NCI tumour cell line growth inhibition, 48 h
DMS 273 small cell lung = tested on: DMS 273 small cell lung
UACC-257 melanoma = tested on: UACC-257 melanoma
M14 melanoma = tested on: M14 melanoma
DU-145 prostate = tested on: DU-145 prostate
SK-MEL-5 melanoma = tested on: SK-MEL-5 melanoma
NCI-H23 lung = tested on: NCI-H23 lung
TK-10 renal = tested on: TK-10 renal
K-562 leukemia = tested on: K-562 leukemia
SF-268 CNS = tested on: SF-268 CNS
P388 leukemia = tested on: P388 leukemia
OVCAR-3 ovarian = tested on: OVCAR-3 ovarian
KM12 colon = tested on: KM12 colon
NCI-H226 lung = tested on: NCI-H226 lung
OVCAR-5 ovarian = tested on: OVCAR-5 ovarian
XF 498 CNS = tested on: XF 498 CNS
P388/ADR leukemia = tested on: P388/ADR leukemia
EKVX NSCLC = tested on: EKVX NSCLC
HCT-116 colon = tested on: HCT-116 colon
HOP-62 NSCLC = tested on: HOP-62 NSCLC
UO-31 renal = tested on: UO-31 renal
SR leukemia = tested on: SR leukemia
LOX IMVI melanoma = tested on: LOX IMVI melanoma
M19-MEL melanoma = tested on: M19-MEL melanoma
CAKI-1 renal = tested on: CAKI-1 renal
HOP-92 NSCLC = tested on: HOP-92 NSCLC
NCI-H460 lung = tested on: NCI-H460 lung
A498 renal = tested on: A498 renal
PC-3 prostate = tested on: PC-3 prostate
T-47D breast = tested on: T-47D breast
MDA-MB-231 breast = tested on: MDA-MB-231 breast
IGROV1 ovarian = tested on: IGROV1 ovarian
COLO 205 colon = tested on: COLO 205 colon
SF-539 CNS = tested on: SF-539 CNS
CCRF-CEM leukemia = tested on: CCRF-CEM leukemia
U251 CNS = tested on: U251 CNS
HCC-2998 colon = tested on: HCC-2998 colon
NCI-H522 lung = tested on: NCI-H522 lung
HL-60(TB) leukemia = tested on: HL-60(TB) leukemia
SNB-75 CNS = tested on: SNB-75 CNS
NCI/ADR-RES ovarian = tested on: NCI/ADR-RES ovarian
SW-620 colon = tested on: SW-620 colon
DLD-1 colon = tested on: DLD-1 colon
RXF 393 renal = tested on: RXF 393 renal
MALME-3M melanoma = tested on: MALME-3M melanoma
SNB-78 CNS = tested on: SNB-78 CNS
OVCAR-4 ovarian = tested on: OVCAR-4 ovarian
SK-MEL-2 melanoma = tested on: SK-MEL-2 melanoma
MCF7 breast = tested on: MCF7 breast
OVCAR-8 ovarian = tested on: OVCAR-8 ovarian
ACHN renal = tested on: ACHN renal
HCT-15 colon = tested on: HCT-15 colon
UACC-62 melanoma = tested on: UACC-62 melanoma
HT29 colon = tested on: HT29 colon
SN12C renal = tested on: SN12C renal
KM20L2 colon = tested on: KM20L2 colon
SNB-19 CNS = tested on: SNB-19 CNS
MOLT-4 leukemia = tested on: MOLT-4 leukemia
A549 NSCLC = tested on: A549 NSCLC
RPMI-8226 leukemia = tested on: RPMI-8226 leukemia
SK-MEL-28 melanoma = tested on: SK-MEL-28 melanoma
SN12K1 renal = tested on: SN12K1 renal
HOP-18 NSCLC = tested on: HOP-18 NSCLC
DMS 114 small cell lung = tested on: DMS 114 small cell lung
SF-295 CNS = tested on: SF-295 CNS
SK-OV-3 ovarian = tested on: SK-OV-3 ovarian

COc1ccc(CC2C(=O)NC(C)C(=O)N(C)C3Cc4ccc(cc4)Oc4cc(ccc4O)CC(C(=O)NC(C)C(=O)NC(C)C(=O)N2C)N(C)C3=O)cc1 (stereo unspecified)
TGI (DMS 273 small cell lung): 53.2 nM | GI50 (UACC-257 melanoma): < 0.1 nM | GI50 (M14 melanoma): 10.7 nM | TGI (M14 melanoma): 518 nM and 360 nM | TGI (DU-145 prostate): 2.88 nM | GI50 (SK-MEL-5 melanoma): 1.02 nM | TGI (SK-MEL-5 melanoma): 53.2 nM and 127 nM and 67.9 nM | GI50 (NCI-H23 lung): < 0.1 nM | TGI (NCI-H23 lung): 29.3 nM and 21.2 nM and 158 nM | TGI (TK-10 renal): 979 nM and 210 nM | GI50 (K-562 leukemia): < 0.1 nM | TGI (K-562 leukemia): 2010 nM | GI50 (SF-268 CNS): < 0.1 nM | TGI (P388 leukemia): 17.7 nM | GI50 (OVCAR-3 ovarian): 0.244 nM | TGI (OVCAR-3 ovarian): 43.8 nM | GI50 (KM12 colon): < 0.1 nM | TGI (KM12 colon): 127 nM | GI50 (NCI-H226 lung): 9.29 nM | TGI (NCI-H226 lung): 624 nM | TGI (OVCAR-5 ovarian): 30.5 nM and 60.7 nM | TGI (XF 498 CNS): 22.4 nM | TGI (P388/ADR leukemia): 20.6 µM | GI50 (EKVX NSCLC): 1.25 nM | TGI (EKVX NSCLC): 144 nM and 42.4 nM | GI50 (HCT-116 colon): < 0.1 nM | TGI (HCT-116 colon): 112 nM and 55.4 nM | GI50 (HOP-62 NSCLC): 2.18 nM | GI50 (UO-31 renal): 240 nM | TGI (UO-31 renal): 5.75 µM and 4.16 µM | TGI (SR leukemia): 112 nM | GI50 (LOX IMVI melanoma): < 0.1 nM | TGI (M19-MEL melanoma): 19.2 nM | GI50 (CAKI-1 renal): 497 nM and 647 nM and 72.7 nM | GI50 (HOP-92 NSCLC): 0.108 nM | TGI (HOP-92 NSCLC): 0.866 nM | GI50 (NCI-H460 lung): 0.156 nM | TGI (NCI-H460 lung): 28.4 nM and 106 nM and 32.5 nM | TGI (A498 renal): 14.7 nM and 70.9 nM | TGI (PC-3 prostate): 0.246 nM | TGI (T-47D breast): 201 nM and 21.9 nM | TGI (MDA-MB-231 breast): 67.1 nM | GI50 (IGROV1 ovarian): < 0.1 nM | TGI (IGROV1 ovarian): 20.3 nM | GI50 (COLO 205 colon): 0.278 nM | TGI (COLO 205 colon): 74.5 nM | GI50 (SF-539 CNS): < 0.1 nM | TGI (SF-539 CNS): 21.9 nM and 28.8 nM | GI50 (CCRF-CEM leukemia): < 0.1 nM | TGI (CCRF-CEM leukemia): 122 nM | GI50 (U251 CNS): < 0.1 nM | GI50 (HCC-2998 colon): < 0.1 nM | TGI (HCC-2998 colon): 16.8 nM and 29.2 nM | GI50 (NCI-H522 lung): < 0.1 nM | GI50 (HL-60(TB) leukemia): < 0.1 nM | GI50 (SNB-75 CNS): < 0.1 nM | TGI (SNB-75 CNS): 21.4 nM | GI50 (NCI/ADR-RES ovarian): 15.2 µM | TGI (NCI/ADR-RES ovarian): 78.6 µM | GI50 (SW-620 colon): 0.157 nM | TGI (DLD-1 colon): 1090 nM | TGI (RXF 393 renal): 73.1 nM | GI50 (MALME-3M melanoma): < 0.1 nM | TGI (SNB-78 CNS): 25.6 nM | GI50 (OVCAR-4 ovarian): < 0.1 nM | TGI (OVCAR-4 ovarian): 523 nM and 131 nM and 88 nM | GI50 (SK-MEL-2 melanoma): < 0.1 nM | GI50 (MCF7 breast): < 0.1 nM | GI50 (OVCAR-8 ovarian): 0.34 nM | TGI (OVCAR-8 ovarian): 144 nM and 37.9 nM | GI50 (ACHN renal): 450 nM | TGI (ACHN renal): 45 µM | GI50 (HCT-15 colon): 1270 nM | TGI (HCT-15 colon): 14.9 µM | TGI (UACC-62 melanoma): 161 nM and 22.3 nM | GI50 (HT29 colon): < 0.1 nM | TGI (HT29 colon): 34.7 nM and 16.1 nM and 152 nM | GI50 (SN12C renal): 208 nM | TGI (SN12C renal): 281 nM and 536 nM | TGI (KM20L2 colon): 490 nM | GI50 (SNB-19 CNS): < 0.1 nM | GI50 (MOLT-4 leukemia): < 0.1 nM | TGI (A549 NSCLC): 193 nM and 599 nM and 306 nM | GI50 (RPMI-8226 leukemia): < 0.1 nM | TGI (RPMI-8226 leukemia): 32.7 nM and 17.9 nM

CSc1nc2c(ncn2C2OCC(O)C(O)C2O)c(=O)[nH]1 (stereo unspecified)
TGI (DMS 273 small cell lung): > 100000 nM | TGI (UACC-257 melanoma): > 100 µM | TGI (SK-MEL-5 melanoma): > 100000 nM | TGI (NCI-H23 lung): > 100000 nM | TGI (K-562 leukemia): > 100000 nM | TGI (SF-268 CNS): > 100 µM | TGI (P388 leukemia): > 100000 nM | TGI (OVCAR-3 ovarian): > 100000 nM | TGI (SK-MEL-28 melanoma): > 100 µM | TGI (SN12K1 renal): > 100 µM | TGI (KM12 colon): > 100000 nM | TGI (HOP-18 NSCLC): > 100 µM | TGI (NCI-H226 lung): > 100000 nM | TGI (OVCAR-5 ovarian): > 100000 nM | TGI (XF 498 CNS): > 100000 nM | TGI (P388/ADR leukemia): > 100 µM | TGI (EKVX NSCLC): > 100000 nM | TGI (HCT-116 colon): > 100000 nM | TGI (HOP-62 NSCLC): > 100 µM | TGI (UO-31 renal): > 100 µM | TGI (LOX IMVI melanoma): > 100 µM | TGI (M19-MEL melanoma): > 100000 nM | TGI (HOP-92 NSCLC): > 100000 nM | TGI (NCI-H460 lung): > 100000 nM | TGI (A498 renal): > 100000 nM | TGI (DMS 114 small cell lung): > 100 µM | TGI (SF-295 CNS): > 100 µM | TGI (IGROV1 ovarian): > 100000 nM | TGI (COLO 205 colon): > 100000 nM | TGI (SF-539 CNS): > 100000 nM | TGI (CCRF-CEM leukemia): > 100000 nM | TGI (SK-OV-3 ovarian): > 100 µM | TGI (U251 CNS): > 100 µM | TGI (HCC-2998 colon): > 100000 nM | TGI (NCI-H522 lung): > 100 µM | TGI (HL-60(TB) leukemia): > 100 µM | TGI (SNB-75 CNS): > 100000 nM | TGI (NCI/ADR-RES ovarian): > 100 µM | TGI (SW-620 colon): > 100 µM | TGI (DLD-1 colon): > 100000 nM | TGI (RXF 393 renal): > 100000 nM | TGI (MALME-3M melanoma): > 100 µM | TGI (SNB-78 CNS): > 100000 nM | TGI (OVCAR-4 ovarian): > 100000 nM | TGI (SK-MEL-2 melanoma): > 100 µM | TGI (MCF7 breast): > 100 µM | TGI (OVCAR-8 ovarian): > 100000 nM | TGI (HCT-15 colon): > 100 µM | TGI (UACC-62 melanoma): > 100000 nM | TGI (HT29 colon): > 100000 nM | TGI (SN12C renal): > 100000 nM | TGI (KM20L2 colon): > 100000 nM | TGI (SNB-19 CNS): > 100 µM | TGI (MOLT-4 leukemia): > 100 µM | TGI (A549 NSCLC): > 100000 nM | TGI (RPMI-8226 leukemia): > 100000 nM
